From paper PMC11435625, “In Vitro Hepatic Clearance Evaluations of Per- and Polyfluoroalkyl Substances (PFAS) across Multiple Structural Categories” (Toxics, 2024)

Columns and labels:
[1] = system: pooled primary human hepatocyte suspensions; assay: Hepatic clearance assay (substrate depletion, LC-MS); settings: in µL/min/10^6 cells; for CLint for HTTK: CLint value carried into HTTK/IVIVE; for in vitro CLint exp assay / Unadj Clint: pooled primary human hepatocyte suspensions; for Unadj Clint: unadjusted hepatic intrinsic clearance, Table S4
Method: The rate of hepatic clearance was determined as previously described for a set of PFAS [11]. Analysis was conducted across two laboratories at the Division of Translational Toxicology (DTT) at the National Institute of Environmental Health Sciences (NIEHS) and the Center for Computational Toxicology and Exposure at the USEPA. The PFAS analyzed in each lab can be found in the Supplementary Materials.
The hepatic clearance assay was performed at both the DTT and EPA laboratories as described below. The pooled human hepatocyte suspensions used in this work were purchased commercially and meet the ethical and scientific standards described in the Human Ethics Rule (40 CFR 26). The suspensions were prepared from hepatocytes obtained from de-identified donors by a commercial vendor.
PFAS stock solutions prepared in DMSO were added to prewarmed William’s E medium to make a 2X working stock solution (2 µM). […] The working stock solutions were then transferred to a 96-well polypropylene plate and placed in an incubator at 37 °C with 5% carbon dioxide prior to adding cells. Cryopreserved pooled primary human hepatocyte suspensions (50-donor pool, mixed gender; BioIVT; Westbury, NY, USA) were thawed and transferred to vials containing hepatocyte thawing medium. After centrifuging for 5–10 min at 100× g, thawing medium was removed, being careful not to disturb the cell pellet. The primary human hepatocytes were then resuspended in pre-warmed complete Williams E medium to achieve a cell density of ~1.0 × 10^6 viable cells/mL as determined by Trypan Blue exclusion. Cells were then added to the 96-well incubation plates containing PFAS to achieve a final density of ~0.5 × 10^6 viable cells/mL and a 1 μM assay concentration (Ctest), then placed in incubator on a shaker at 300 rpm. Triplicate samples were removed from the incubator at time points ranging from 0 to 240 min and quenched with a total crash in 2–3 volumes of ice-cold acetonitrile. Samples were spun at 4000× g for 20 min, and supernatants were transferred to new tubes and stored at <−70 °C until analysis. Media-only (no cell) and/or heat-inactivated hepatocytes were included as negative controls for each chemical to evaluate and estimate chemical loss due to nonmetabolic processes (e.g., hydrolysis). Phenacetin was included in all runs as an assay reference compound; EPA also included propranolol as an additional reference compound.
Assay samples were diluted in mobile phase and analyzed using a Thermo Vanquish UPLC system with a Thermo Hypersil Gold aQ C18 column (100 × 2.1 mm, 1.9 […], Thermo Fisher Scientific Inc.) coupled to a Q Exactive Plus mass spectrometer. Gradient elution was used in the chromatographic separations using water with 20 mM ammonium acetate (mobile phase A) and methanol (mobile phase B), with the following gradient program: 0.5–7 min, 30%–90% B; 7–8 min, 90% B; 8–9 min, 90%–30% B; and 9–10 min, 30% B. The first minute of each injection was diverted to waste to avoid introduction of excessive salts from incubation medium. Analysis was detected in negative ion mode. Samples were quantified against an external, matrix-matched calibration curve. Additional methodologic information is available in Table S2.
To perform SPE, a positive-pressure manifold was employed along with Oasis WAX µElution plates and Oasis HLB 30 mg plates (Waters, Milford, MA, USA) for PFAS and positive-control extraction, respectively. […] The sorbent was then washed with 1% formic acid and water. Samples were eluted in 2% ammonia in methanol for analysis. Similarly, HLB plates were conditioned with methanol and water before sample was loaded onto the sorbent. The wells were then washed with 5% methanol in water and water before elution in methanol. For samples not undergoing SPE, the supernatant of the crashed assay sample was diluted in mobile phase prior to analysis. The first 1.5 min of the run was diverted to waste to prevent salt contamination.

[2] = IVIVE: steady-state concentration (Css), generic HTTK model; parameters: species or system human; settings: for Css (mg/L) / Css (uM): Assuming 1 mg/kg/day dose rate, BW 70 kg; for CLhep: QL 1500000 uL/min; for Fub: fub=fup/(B:P), Fub set to 1 if needed; for CLint: scaled to whole liver: HPGL 110 mill cells/g, Vl 1596 g
Method: IVIVE was performed as previously described to calculate human steady-state concentrations (Css). Briefly, experimental plasma protein binding data presented elsewhere were transformed to fraction unbound in blood using blood-to-plasma partitioning values. Experimental Clint values generated here are used in conjunction with relevant liver scalars to scale up to estimate whole liver clearance. […] Once Css values were established, these were used with the PFAS-specific in vitro POD data to calculate the administered equivalent doses (AEDs) using reverse dosimetry. […] The fifth-percentile AC50 value was used to define the in vitro POD. All relevant inputs, scalars, and calculations are provided in Supplementary Information, as indicated in the results.

plasma protein = settings: cited from earlier work; for Mean fu: fraction unbound in plasma, input for IVIVE calculations

Compound | CLint for HTTK [1] | in vitro CLint exp assay [1] | Css (mg/L) [2] [mg/L] | Css (uM) [2] [µM] | CLhep [2] [L/h] | Fub [2] | CLint [2] [µL/min] | Mean fu (plasma protein) | Unadj Clint [1] | Css ([2]; human steady-state concentration, 1 mg/kg/day exposure rate, loss of parent compound only) [µM] | fup (fraction unbound in plasma) (plasma protein; human plasma)
O=S(=O)([O-])C(F)(F)C(F)(F)C(F)(F)C(F)(F)C(F)(F)C(F)(F)F.[K+] | 0 | 0 | 241.34 | 603.44 | 0.000 | 0.001818 | 0 | 0.001 | – | – | –
C[N+](C)(C)CCCNS(=O)(=O)C(F)(F)C(F)(F)C(F)(F)C(F)(F)C(F)(F)C(F)(F)C(F)(F)C(F)(F)F.[I-] | 0 | 0 | 19.15 | 31.97 | 0.000 | 0.02291 | 0 | 0.0126 | 4.28 | – | –
O=C(O)C(F)(F)C(F)(F)OC(F)(F)F | 0 | 0 | 3.16 | 13.74 | 0.000 | 0.1389 | 0 | 0.0764 | – | – | –
NS(=O)(=O)C(F)(F)C(F)(F)C(F)(F)C(F)(F)C(F)(F)C(F)(F)F [Perfluorohexanesulfonamide (PFHxSA)] | 0 | 0 | 603.36 | 1512.33 | 0.000 | 0.0007273 | 0 | 0.0004 | – | – | –
O=S(=O)(Cl)C(F)(F)C(F)(F)C(F)(F)C(F)(F)C(F)(F)C(F)(F)C(F)(F)C(F)(F)F | 0 | 0.00 | 41.78 | 80.68 | 0.000 | 0.0105 | 0 | 0.0109 | – | – | –
O=S(=O)(O)C(F)(F)C(F)(F)C(F)(F)C(F)(F)C(F)(F)C(F)(F)C(F)(F)C(F)(F)F [Perfluorooctane sulfonate (PFOS)] | 0 | 0 | 49.25 | 98.52 | 0.000 | 0.008909 | 0 | 0.0049 | – | – | –
O=C(O)C(F)(F)C(F)(F)C(F)(F)OC(F)(F)F | 1.5 | 1.5 | 6.16 | 22.00 | 0.335 | 0.02127 | 263340 | 0.0117 | – | – | –
O=S(=O)(O)C(F)(F)C(F)(F)C(F)(F)C(F)(F)C(F)(F)C(F)(F)C(F)(F)C(F)(F)F [Perfluorooctanesulfonate (PFOS-)] | 0 | 0 | 51.35 | 102.71 | 0.000 | 0.008545 | 0 | 0.0047 | – | – | –
O=C(O)C(F)(F)C(F)(F)C(F)(F)C(F)(F)C(F)(F)C(F)(F)C(F)(F)C(F)(F)C(F)(F)C(F)(F)C(F)(F)C(F)(F)C(F)(F)F [Perfluorotetradecanoic acid (PFTeA)] | 0 | 0 | 8.91 | 12.47 | 0.000 | 0.04927 | 0 | 0.0271 | – | – | –
O=C(O)C(F)(F)C(F)(F)C(F)(F)C(F)(F)C(F)(F)C(F)(F)C(F)(F)C(F)(F)C(F)(F)C(F)(F)C(F)(F)C(F)(F)F [Perfluorotridecanoic acid] | 0 | 0 | 5.57 | 8.39 | 0.000 | 0.07873 | 0 | 0.0433 | 0.00 | – | –
O=C(O)C(F)(F)C(F)(F)C(F)(F)C(F)(F)F [PFPeA, Perfluoropentanoic acid] | – | – | – | – | – | – | – | – | 2.13 | 20.78 | 0.0440
O=C(Cl)C(F)(F)C(F)(F)C(F)(F)C(F)(F)C(F)(F)C(F)(F)C(F)(F)F | 0 | 0 | 3584.17 | 8297.84 | 0.000 | 0.0001224 | 0 | 0.0001 | – | – | –
O=S(=O)(O)C(F)(F)C(F)(F)C(F)(F)C(F)(F)C(F)(F)C(F)(F)C(F)(F)F [Perfluoroheptanesulfonic acid (PFHpS)] | 0 | 0 | 402.24 | 893.98 | 0.000 | 0.001091 | 0 | 0.0006 | – | – | –
O=C(O)C(F)(F)C(F)(F)C(F)(F)C(F)(F)C(F)(F)C(F)(F)C(F)(F)C(F)(F)F [Perfluorononanoic acid (PFNA)] | 0 | 0 | 150.84 | 325.11 | 0.000 | 0.002909 | 0 | 0.0016 | – | – | –
O=S(=O)(O)C(F)(F)C(F)(F)C(F)(F)C(F)(F)C(F)(F)C(F)(F)F [Perfluorohexanesulfonic acid (PFHxS)] | 0 | 0 | 268.16 | 670.49 | 0.000 | 0.001636 | 0 | 0.0009 | – | – | –
O=S(=O)(OCC(F)(F)F)C(F)(F)C(F)(F)C(F)(F)C(F)(F)F [2,2,2-Trifluoroethyl perfluorobutanesulfonate] | 0 | 0.00 | 65.09 | 170.41 | 0.000 | 0.006742 | 0 | 0.0039 | 2.84 | – | –
O=S(=O)([O-])C(F)(F)C(F)(F)C(F)(F)C(F)(F)C(F)(F)C(F)(F)C(F)(F)C(F)(F)C(F)(F)C(F)(F)F.[Na+] [Sodium perfluorodecanesulfonate (NaPFDS)] | 0 | 0.00 | 4.57 | 7.62 | 0.000 | 0.096 | 0 | 0.0528 | – | – | –
O=C(O)C(F)(F)C(F)(F)C(F)(F)C(F)(F)F [Perfluoropentanoic acid (PFPeA)] | 0 | 0 | 5.49 | 20.78 | 0.000 | 0.08 | 0 | 0.044 | – | – | –
